These results are taken from US11730717B1, “Melanin-inspired antimicrobial” (The Board of Regents for the Oklahoma Agricultural and …, priority 2020, dated 2023).

Values joined by “and” are separate entries in the source; they are usually repeats but may differ in a detail not shown here. Equal values may be shown once. “Also recorded” adds a separate entry of the source. Read-outs that look alike come from different tables or passages of the source.

For one data set, the system named is C. neoformans. Nature of the data set: Scanning electron microscopy of treated fungal cells. Format: cell-based, Cryptococcus neoformans. To be noted: exposed at the minimum inhibitory concentration 1.749 μg/mL for 4, 8, 12 or 24 hrs. As to the method: C. neoformans were suspended in RPMI with MOPs, 0.165M, at a concentration of 2.0×10^6 cells/mL. RPMI Mops media was added to a 2 mL collection tube in a volume of 100 μL. […] The tubes were incubated at 35° C. in a humid incubator for set time points of 4 hrs, 8 hrs, 12 hrs, or 24 hrs. Once removed, the tubes were placed in a centrifuge for 1 min. at 5000 rpm. Media was removed. The pellet was resuspended in 2.0% glutaraldehyde in 0.1 M cacodylate buffer at a volume of 1 mL for a minimum of 2 hrs.
Fixed C. neoformans cells were placed in a centrifuge for 1 min at 5000 rpm. Media was removed and C. neoformans was rinsed 3 times in a buffered wash at fixed intervals of 15 mins. Rinsed cells were resuspended in 1% OsO4 at room temperature for 1 hr in a 36-well plate with a cover slip. 1% OsO4 was removed. C. neoformans was rinsed 3 times in a buffered wash at fixed intervals of 15 mins. C. neoformans were dehydrated in ethanol at 50%, 70%, 90%, 95%, and 100% three times at fixed intervals of 15 mins. C. neoformans were wash two times with […] at a time interval of 5 mins. Cover slips were placed on a clear sheet for 12 hrs to dry. Cover slips were mounted on stubs with silver paint. The cover slips were covered in an Au—Pd coat. […]

Data set [1] has as its system MRSA. Nature of the data set: Comparison with Methicillin and Gentamicin, recoverable CFU. It is filed as cell-based, Staphylococcus aureus. Conditions: compared with Methicillin and Gentamicin treatment. Here is the method:
To determine CFUs of PA and MRSA after exposure to DMSO, DBI, EIPE-1, Gentamicin or Methicillin, 10-fold serial dilutions were prepared in 96-well micro plates using multichannel pipettes. For each dilution, 25 ptL of each sample was pipetted onto a plate containing agar medium and incubated for 18 h at 37° C. The number of colonies for each dilution were counted and used to back calculate the number of bacteria per mL (CFU/mL) in each original bacterial culture.
EIPE-1 antimicrobial activity against MRSA and PA was compared to that of Methicillin and Gentamicin treatment. Bacterial cultures were grown, normalized and then exposed to either DBI, DMSO (solvent control), EIPE-1, Methicillin or Gentamicin (FIG. 3). […] This is highly significant and novel as methicillin resistance is a huge problem in hospitals and patient treatment worldwide. […] Gram-negative bacteria like PA have an outer membrane covered with lipopolysaccharides that protects the bacteria from antibiotics, dyes, and detergents from penetrating the bacterial cell.

A further data set deals with S. epidermidis SK01. The data set can be described thus: MIC and MBC values (Table 2). Format: cell-based. Conditions: Staphylococcus epidermidis.
The test system of the next data set is HeLa cells. The data set can be described thus: Cytotoxicity, LDH leakage assay. Format: cell-based. Here is the method: HeLa cells were cultured in 96-well plates at 37° C. and 5% CO2 in Roswell Park Memorial Institute (RMPI) 1640 medium with 5% Fetal Bovine Serum (FBS). Once HeLa cells reached 95% confluency, the media was replaced with media containing various concentrations of EIPE-1, DBI or DMSO for 24 hours. Cell cytotoxicity was measured using the lactate dehydrogenase (LDH) leakage assay. Results were compared to maximum values of lysed cells in control wells and were graphed as percent relative cytotoxicity using Prism 5.0.
Host cell cytotoxicity against HeLa cells was examined for both DBI and EIPE-1 (FIG. 2B). LDH release was examined after 24-hour exposure to varying concentrations of DBI, DMSO and EIPE-1. […] Thus, EIPE-1 is relatively safe to use with respect to eukaryotic cells.

Data set [2] relates to MRSA. The data set can be described thus: Kirby-Bauer disc diffusion assay. To be noted: Staphylococcus aureus, 24-hour incubation at 37° C. It is filed as cell-based, Staphylococcus aureus. As to the method: The susceptibility of MRSA to EIPE-1 was determined by the Kirby-Bauer disc diffusion method. Using a cotton swab applicator, a lawn of the S. aureus clinical isolate was placed onto Mueller Hinton agar plates to cover the entire surface of the plate. Filter discs (size=6 mm) were added onto the bacterial lawn. EIPE-1, DBI, and DMSO (10 μL each) were then added onto the filter discs.
The efficacy of compound EIPE-1 was tested by the Kirby-Bauer disc assay. The Kirby-Bauer disc assay assesses the sensitivity of bacteria to antimicrobial agents. If the bacteria are sensitive to the antimicrobial being tested, then a zone of inhibition of bacterial growth is seen around the filter disc containing the antimicrobial. The Kirby-Bauer disc assay was used to test the antimicrobial efficacy of EIPE-1 against MRSA. EIPE-1 was reconstituted at 1 mg/mL in DMSO and serially diluted (10^−1 to 10^−5) after which 10 μL of each dilution (and DMSO as a solvent control) was added to a separate disc on an LB plate inoculated with a lawn of bacteria. The plates were incubated at 37° C. for 24 h, and the resulting radii zone sizes around each disc were then measured.

In data set [3] the test system is Candida albicans strain SC5314. Nature of the data set: Antifungal MIC assay. It is filed as cell-based. To be noted: for MIC: Candida albicans. Here is the method: Cryptococcus neoformans serotype A strain H99 as well as Candida ablicans strain SC5314, were readily available in the lab. The stock of cells is stored at −80° C. to preserve the fungi and prevent contamination. The cells were grown and maintained in yeast extract-peptone-dextrose (YPD) media (Difco). Cryptococcus or Candida cells were incubated in YPD broth for 18 hrs at 30° C., in a shaking incubator. After the incubation period, they were washed three times in sterile phosphate-buffered saline (PBS) to remove all remaining residue of YPD. The cells were then quantified by using trypan blue dye exclusion in a hemocytometer.
C. albicans were suspended in RPMI with MOPS, 0.165M, at a concentration of 0.5×10^3 cells/mL. RPMI Mops media was added to a 96-well plate in a volume of 100 μL to every well, with the exception of column 1. An additional 80 μL of RPMI MOPS was added to column 4 for a total of 180 μL/per well. EIPE-1 was added to columns 2 and 4 with a volume of 20 μL at a concentration of 1 mg/mL. Contents were mixed, then serially diluted 100 μL down the plate until column 11. The last 100 μL was discarded, leaving column 12 blank. C. albicans was added at a volume of 100 μL per well from column 4 to column 12, so the final volume of the wells was 200 μL. Plates were incubated at 35° C. in a humid incubator for 48 hrs.

Turning to `COC(=O)c1cc2c(C#Cc3ccc(OCCC[N+](C)(C)C)cc3)c(OC)c(OC)c(C#Cc3ccc(OCCC[N+](C)(C)C)cc3)c2n1C` [EIPE-1, 3,3′-((((5,6-dimethoxy-2-(methoxycarbonyl)-1-methyl-1H-indole-4,7-diyl)bis(ethyne-2,1-diyl))bis(4,1-phenylene))bis(oxy))bis(N,N,N-trimethylpropan-1-aminium) iodide], in the data set with C. neoformans, the “cell wall changes by SEM” value is “structural changes to their cell wall; also recorded: changes to the cell wall shown at 4 hours”. Further, the “biocidal activity against MRSA” value with MRSA [1] is given as “effective in killing MRSA; also recorded: exhibited biocidal activity”. The same compound displayed an MBC against S. epidermidis SK01 of 2 µg/mL. In addition, the MIC against S. epidermidis SK01 is 1 µg/mL; in data set [3] (SC5314, 48 h, 35° C., 48 hrs, RPMI with MOPS, read-out: Minimum inhibitory concentration (MIC) for the isolate of C. albicans) it was 2.71 µg/mL; in data set [3] (SC5314, across seven experiments, read-out: Candida MIC), 2.46 µg/mL. Moreover, in the data set with HeLa cells, the “concentration at which cell cytotoxicity was detected” value was 62.5 μg/mL and 66.8 μM. The “maximal cytotoxicity (LDH release)” value in the data set with HeLa cells (24-hour exposure, concentrations above 62.5 μg/mL (66.8 μM)) worked out at 50%. Moreover, in the data set on HeLa cells (prolonged exposure (24 h)), the “cytotoxic concentration relative to the MIC against S. aureus” value was 4-5 fold. This compound also returned a zone of inhibition at 10 µg/mL in the data set on MRSA [2] (10 μL of 0.01 mg/mL on disc) of 1 mm. Also, the zone of inhibition at 100 µg/mL in the data set on MRSA [2] (10 μL of 0.1 mg/mL on disc) turned out to be 1.5 mm. The compound further came in with a zone of inhibition at 1000 µg/mL in the data set on MRSA [2] (10 μL of 1.0 mg/mL on disc) of 2 mm. For the same compound, in data set [3] (35° C., 48 hrs, RPMI with MOPS), the “Minimum inhibitory concentration (MIC) for the isolate of C. albicans” value is 2.705 ± 0.3962 µg/mL.
